From ChEMBL document CHEMBL4138047, “Recent advancements in the discovery of protein-protein interaction inhibitors of replication protein A” (Medchemcomm, 2017)

What was measured:
[1] = molecular target: T1, Replication protein A 70 kDa DNA-binding subunit (Homo sapiens, UniProt P27694); test: Binding affinity to RPA70 (unknown origin) by FITC-labeled probe based fluorescence polarization anisotropy
[2] = molecular target: T1, Replication protein A 70 kDa DNA-binding subunit; test: Inhibition of GST-tagged X-rhodamine-labelled p53TAD2 binding to human recombinant RPA70 expressed in Escherichia coli BL21 by fluorescence anisotropy competition assay
[3] = molecular target: T1, Replication protein A 70 kDa DNA-binding subunit; test: Binding affinity to human recombinant RPA70 expressed in Escherichia coli BL21 using FPA by tryptophan fluorescence quenching assay
[4] = Binding affinity to human recombinant RPA70 R41E/R43E mutant expressed in Escherichia coli BL21 using FPA by tryptophan fluorescence quenching assay
[5] = Protein binding in human plasma at 1 ug/ml after 4 hrs by LC-MS/MS method; type: ADME, cell-free; conditions: read-out: PPB (converted)
[6] = Apparent permeability in human Caco2 cells at 5 uM incubated for 120 mins by LC-MS/MS method; type: ADME, cell-based; conditions: Caco-2

T1 sequence (P27694 whole entry): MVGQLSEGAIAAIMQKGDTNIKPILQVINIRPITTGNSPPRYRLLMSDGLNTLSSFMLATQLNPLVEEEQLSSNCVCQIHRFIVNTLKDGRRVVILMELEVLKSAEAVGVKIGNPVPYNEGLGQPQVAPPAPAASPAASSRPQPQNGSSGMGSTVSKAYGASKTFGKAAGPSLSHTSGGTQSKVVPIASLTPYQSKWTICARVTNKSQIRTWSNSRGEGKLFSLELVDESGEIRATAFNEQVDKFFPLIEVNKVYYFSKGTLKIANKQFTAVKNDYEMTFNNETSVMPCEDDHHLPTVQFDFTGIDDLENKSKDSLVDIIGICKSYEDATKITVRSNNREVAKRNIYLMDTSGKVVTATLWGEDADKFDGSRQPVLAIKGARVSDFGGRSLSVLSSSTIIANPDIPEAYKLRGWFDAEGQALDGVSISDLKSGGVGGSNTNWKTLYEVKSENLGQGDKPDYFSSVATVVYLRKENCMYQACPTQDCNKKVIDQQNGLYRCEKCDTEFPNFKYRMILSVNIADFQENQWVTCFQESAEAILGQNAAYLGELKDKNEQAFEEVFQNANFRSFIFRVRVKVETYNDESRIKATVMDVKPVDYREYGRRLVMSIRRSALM

| SMILES | Kd [1] [µM] | Kd [2] [µM] | Kd [3] [µM] | Kd [4] [µM] | fraction unbound at 4 h, 1 ug/ml [5] | Papp at 2 h, 5 µM [6] [×10⁻⁶ cm/s] |
| --- | --- | --- | --- | --- | --- | --- |
| Cc1ccc(C(=O)Nc2ccccc2C(=O)O)cc1S(=O)(=O)Nc1ccc(Br)cc1 | 30 |  |  |  |  |  |
| CC(C)C1=C[C@@]23CC[C@@H]4[C@](C)(CCC[C@@]4(C)C(=O)O)[C@H]2C[C@@H]1[C@@H](C(=O)O)[C@@H]3C(=O)O |  | 9 | 29 | 230 |  |  |
| Cc1ccc(C(=O)Nc2cc(Br)ccc2C(=O)O)cc1S(=O)(=O)Nc1ccc(Cl)c(Cl)c1 | 0.81 |  |  |  | 0.002 | 29.2 |
